{"source": "ChEMBL document CHEMBL1201862", "about": "“PubChem BioAssay data set” (2004)", "target": "Envelope glycoprotein gp160 (Human immunodeficiency virus 1, UniProt Q6QLK5)", "sequence (Q6QLK5 whole entry, the tested form may be a part)": "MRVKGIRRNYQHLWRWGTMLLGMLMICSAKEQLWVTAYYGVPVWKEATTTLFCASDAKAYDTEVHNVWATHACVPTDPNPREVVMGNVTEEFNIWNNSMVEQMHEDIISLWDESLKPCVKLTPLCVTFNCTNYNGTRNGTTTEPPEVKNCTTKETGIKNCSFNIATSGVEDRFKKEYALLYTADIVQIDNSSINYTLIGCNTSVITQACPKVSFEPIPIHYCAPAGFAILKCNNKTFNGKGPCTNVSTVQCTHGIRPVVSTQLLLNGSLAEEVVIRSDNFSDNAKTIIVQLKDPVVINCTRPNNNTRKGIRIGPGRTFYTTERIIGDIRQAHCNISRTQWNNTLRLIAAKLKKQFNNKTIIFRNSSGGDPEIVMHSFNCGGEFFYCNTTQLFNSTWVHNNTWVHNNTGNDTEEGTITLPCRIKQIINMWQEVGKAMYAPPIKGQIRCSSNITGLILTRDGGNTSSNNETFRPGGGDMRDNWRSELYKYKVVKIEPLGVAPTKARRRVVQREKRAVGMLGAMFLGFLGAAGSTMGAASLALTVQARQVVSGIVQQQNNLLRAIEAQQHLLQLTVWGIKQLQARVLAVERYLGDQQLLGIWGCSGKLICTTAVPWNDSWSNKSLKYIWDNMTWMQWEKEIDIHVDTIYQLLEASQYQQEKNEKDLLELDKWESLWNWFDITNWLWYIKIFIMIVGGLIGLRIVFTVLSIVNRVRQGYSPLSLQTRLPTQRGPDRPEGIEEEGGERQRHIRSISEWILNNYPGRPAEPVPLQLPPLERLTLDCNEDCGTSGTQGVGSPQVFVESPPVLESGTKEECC", "assay": "inhibitors of HIV fusion peptide binding, primary screen, biochemical, uHTS, fluorescence dequenching (AID 1986)", "note": "Calls of active or inactive are those of the source. Rule as the data show it: actives have a measured IC50 and inactives only a lower limit."}
{"compound": "COc1ccc(/C=C2/SC(=S)N(CC(=O)O)C2=O)cc1OCc1ccc(Cl)cc1", "values": [{"measurement": "IC50", "result": "16.5 µM (active)"}]}
{"compound": "COC(=O)c1sc(-c2ccc(C(C)(C)C)cc2)cc1NC(=O)c1ccccc1C(=O)O", "values": [{"measurement": "IC50", "result": "18.5 µM (active)"}]}
